In publication PMC7155420 (2020):

Experiments:
[1] = test system: r(CGGx6); GGx6 (RNA, repeat) GGAGAGGGUUUAAUCGGCGGCGGCGGCGGCGGUACGAAAGUACGGCGGCGGCGGCGGCGGAUUGGAUCCGCAAGG; assay: ITC, two-mode fit; details: K+ (10 mM potassium phosphate); 298 K; highest-affinity site
[2] = test system: r(CGGx1); GGx1; (5'CGG/3'GCC) x 1 in Table S1 (RNA, mismatch bulge abasic) GGAGAGGGUUUAAUCGGUACGAAAGUACGGAUUGGAUCCGCAAGG; assay: CD melting, 267 nm; details: K+ (50 mM KCl, 10 mM potassium phosphate); 10 µM RNA; drug/nucleic acid ratio up to 2.0; 1 °C/min; per base
[3] = test system: r(CGGx6); GGx6 (RNA, repeat) GGAGAGGGUUUAAUCGGCGGCGGCGGCGGCGGUACGAAAGUACGGCGGCGGCGGCGGCGGAUUGGAUCCGCAAGG; assay: CD melting, 267 nm; details: K+ (50 mM KCl, 10 mM potassium phosphate); 10 µM RNA; drug/nucleic acid ratio up to 2.0; 1 °C/min; per base
[4] = test system: r(CGGx1); GGx1; (5'CGG/3'GCC) x 1 in Table S1 (RNA, mismatch bulge abasic) GGAGAGGGUUUAAUCGGUACGAAAGUACGGAUUGGAUCCGCAAGG; assay: fluorescence titration (curcumin fluorescence), two-mode fit; details: 50 mM KCl (general buffer); 10 mM phosphate, pH 7.0, 25 °C; stronger of two sites
[5] = test system: r(CGGx6); GGx6 (RNA, repeat) GGAGAGGGUUUAAUCGGCGGCGGCGGCGGCGGUACGAAAGUACGGCGGCGGCGGCGGCGGAUUGGAUCCGCAAGG; assay: as above; details: 50 mM KCl (general buffer); 10 mM phosphate, pH 7.0, 25 °C; stronger of two sites

Ka [1]: 1.7 × 10^6 M^–1
ΔTm [2]: 1.49 °C
ΔTm [3]: 3.48 °C
Kd1 [4]: 0.12 ± 0.02 µM
Kd1 [5]: 0.092 ± 0.004 µM
SMILES: COc1cc(/C=C/C(=O)CC(=O)/C=C/c2ccc(O)c(OC)c2)ccc1O
